Like-named read-outs stand apart in the source and are kept apart here. Square brackets hold non-standard residues; d marks the D form. Ends that are not written are not given here. Chg = N[C@H](C(=O)O)C1CCCCC1; NMeA = CN[C@@H](C)C(=O)O
How the values were obtained:
[1] = system: MCF-7; experiment: Antiproliferative activity, SRB method; format: cell-based, human; settings: 72 h; for inhibition at 10 µM: Homo sapiens, MCF7, 10 µM, read-out: mean proliferation inhibition at highest concentration used, MCF-7
Source text: (§1) MDA-MB-231 (human breast cancer), MCF10A (human, nontumorigenic mammary gland epithelial cells), A549 (human nonsmall-cell lung cancer), UMUC-3 (human bladder cancer) and LoVo (human colon cancer) cell lines were obtained from the American Type Culture Collection (ATCC; Rockville, Maryland, USA). The MCF-7 cell line (human breast cancer) was obtained from the European Collection of Cell Cultures (ECACC; Salisbury, UK). All cell lines were maintained at the Hirszfeld Institute of Immunology and Experimental Therapy (HIIET), Wrocław, Poland. MDA-MB-231 cells were cultured in RPMI1640 medium (Thermo Fisher Scientific, Warszawa, Poland) supplemented with 2 mM L-glutamine, 1 mM sodium pyruvate, and 10% fetal bovine serum (all from Sigma-Aldrich, Poznań, Poland). The MCF10A cell line was cultured in Ham’s F12 medium with glutamine (Corning) supplemented with 5% (v/v) fetal bovine serum (FBS), 5% (v/v) horse serum, 10 µg/mL insulin, 0.05 µg/mL cholera toxin, 0.5 µg/mL hydrocortisone, and 20 ng/mL hEGF (all from Sigma-Aldrich). A549 and LoVo cells were cultured in a 1:1 (v/v) mixture of RPMI1640 and Opti-MEM (both from HIIET) supplemented with 5% (v/v) FBS and 2 mM L-glutamine. The UMUC-3 cell line was cultured in high glucose DMEM (Thermo Fisher Scientific) supplemented with 10% FBS and 2 mM Lglutamine. The MCF-7 line was cultured in Eagle’s minimal essential medium (EMEM; Thermo Fisher Scientific) supplemented with 10% (v/v) FBS, 2 mM L-glutamine, 1% (v/v) nonessential amino acids, and 8 µg/mL insulin (all from Sigma-Aldrich). All culture media contained 100 µg/mL streptomycin (Sigma-Aldrich) and 100 U/mL penicillin (Polfa Tarchomin SA, Warszawa, Poland). The cells were grown at 37 °C in a humid atmosphere saturated with 5% CO2.
(§2) Antiproliferative activity was assessed in six cell lines utilizing the sulforhodamine B (SRB) method. Briefly, cells were seeded in 96-well plates (Sarstedt, Warszawa, Poland) at a density of 5 × 10^3 cells/well, and after overnight incubation, the cells were exposed to compounds at various concentrations. After 72 h, the plates were fixed with 50% (v/v) TCA (all from Sigma-Aldrich), washed with tap water, and the precipitated proteins were labeled with 0.1% (w/v) SRB solution in 1% (v/v) AcOH. Next, the plates were washed with 1% (v/v) AcOH, and the remaining SRB dye was solubilized with 10 mM unbuffered TRIS solution. The absorbance was measured using a Biotek Hybrid H4 reader (BioTek Instruments, VT, USA) at 540 nm. Crude results were analyzed using a previously described method, and the results are expressed as the IC50 (compound concentration that reduced cell growth by 50%) compared to the vehicletreated control (0.1% (v/v) DMSO). The samples were analyzed in triplicate, and each experiment was repeated at least three times.

[2] = system: UMUC-3; experiment: Antiproliferative activity, SRB method; format: cell-based, human; settings: 72 h; for inhibition at 10 µM: Homo sapiens, UMUC3, 10 µM, read-out: mean proliferation inhibition at highest concentration used, UMUC-3
Source text: as §1, §2

[3] = system: LoVo; experiment: Antiproliferative activity, SRB method; format: cell-based, human; settings: 72 h; for inhibition at 10 µM: Homo sapiens, LoVo, read-out: mean proliferation inhibition at highest concentration used, LoVo
Source text: as §1, §2

[4] = system: MDA-MB-231; experiment: Antiproliferative activity, SRB method; format: cell-based, human; settings: read-out: IC50 ± SD (n = 3) MDA-MB-231
Source text: as §1, §2

[5] = system: MCF-10A; experiment: Antiproliferative activity, SRB method; format: cell-based, human; settings: 72 h; for inhibition at 10 µM: Homo sapiens, MCF-10A, read-out: mean proliferation inhibition at highest concentration used, MCF-10A
Source text: as §1, §2

[6] = system: A549; experiment: Antiproliferative activity, SRB method; format: cell-based, human; settings: 72 h; for inhibition at 10 µM: Homo sapiens, A549, 10 µM, read-out: mean proliferation inhibition at highest concentration used, A549
Source text: as §1, §2

[7] = target: T1, XIAP BIR3 domain (Homo sapiens, UniProt P98170); experiment: Fluorescence polarization inhibition (competition) assay; format: binding; settings: for inhibition at 50 µM: 0.5 h, antagonist 50 µM, inhibition of protein-probe interaction; for Ki / EC50: XIAP BIR3 50 nM, fluorescent probe 4 2 nM; for interaction with the XIAP BIR3 domain (in words): fluorescence polarization
T1 construct: fluorescent probe 4 and the XIAP BIR3 domain (Sino Biological, Beijing, China) were used for all measurements; purchased Sino Biological, Beijing, China
T1 sequence (P98170 252-356 limits assumed): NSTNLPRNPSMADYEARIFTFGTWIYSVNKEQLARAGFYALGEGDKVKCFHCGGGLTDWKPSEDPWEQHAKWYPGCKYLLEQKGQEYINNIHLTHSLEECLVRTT
Protocol: The fluorescence polarization assay was performed at r.t. in Corning 384-well black, polystyrene flat bottom plates (Corning, NY, USA) on a Synergy H4 Hybrid Reader (BioTek, Bad Friedrichshall, Germany). For fluorescence polarization measurements, (milipolarization units, mP) 484/20 nm excitation and 528/20 nm emission filters were selected. Phosphate buffer (pH 7.5) supplemented with γ-globulin (100 µg/mL) and NaN3 (0.02% w/v), fluorescent probe 4 and the XIAP BIR3 domain (Sino Biological, Beijing, China) were used for all measurements. All experiments were performed in duplicate. The obtained fluorescence polarization assay data were analyzed with Prism 5.0 Software (GraphPad Software, San Diego, ca.).
After a 15 min incubation at r.t., fluorescent probe 4 (2 nM) was added. The values were measured 30 min after the moment the probe was added. The assay was performed in phosphate buffer with a final DMSO concentration of 1.4% (v/v). […] In order to evaluate the quality and precision of the performed screening assay, we determined the Z´ factor as described by Zhang et al.. The obtained fluorescence polarization values were used to determine the percent inhibition, which was plotted as a function of the protein concentration. The EC50 and Ki values were calculated with GraphPad software (log(agonist) vs. response (variable slope) model) in combination with the web tool developed by Nikolovska-Coleska et al..
Fluorescence polarization inhibition assay and data analysis for 41m and 42m compounds was performed as described in the Material and Methods section of the manuscript. Briefly, 50 nM solution of the BIR3 XIAP protein in polarization buffer was added into phosphoroorganic compound solution (from 50 μM to 0.0537 nM). After 15 min incubation at r.t. the fluorescent probe 4 (2 nM) was added.
The values were read after 30 minutes from the moment the probe was added. The obtained fluorescence polarization values were used to determine the percentage of inhibition which was plotted as a function of the protein concentration (Supplementary Figure S4).
(1 picture or pasted object on this page, not shown here)

## [NH2][Pt]([NH2])([Cl])[Cl] [CDDP, cisplatin, reference compound]
[1]; read-out: IC50 ± SD (n = 3) MCF-7
  IC50: 5.36 ± 1.8 µM
[2]; read-out: IC50 ± SD (n = 3) UMUC-3
  IC50: 3.73 ± 0.63 µM
[3]; read-out: IC50 ± SD (n = 3) LoVo
  IC50: 3.9 ± 1.3 µM
[4]; 72 h
  IC50: 22.1 ± 5.26 µM
[5]; read-out: IC50 ± SD (n = 3) MCF-10A
  IC50: 6.76 ± 1.2 µM
[6]; read-out: IC50 ± SD (n = 3) A549
  IC50: 1.6 ± 0.4 µM

## CN[C@@H](C)C(=O)N[C@H](C(=O)N1CCC[C@H]1C(=O)NC(Cc1ccccc1)P(=O)(c1ccccc1)c1ccccc1)C(C)C (some centres unmarked) [Compound 13]
[1]
  inhibition at 10 µM: 22%
[2]
  inhibition at 10 µM: 6%
[3]
  inhibition at 10 µM: 6%
[4]; Homo sapiens, MDA-MB-231, 72 h
  IC50: 3.39 ± 0.42 µM
[5]
  inhibition at 10 µM: 5%
[6]
  inhibition at 10 µM: 2%
[7]
  inhibition at 50 µM: 100%
  Ki: 0.75 µM
[7]; read-out: EC50
  EC50: 1.53 µM
[7]; read-out: log EC50 (converted)
  EC50: 1.53 µM

## CN[C@@H](C)C(=O)N[C@H](C(=O)N1CCC[C@H]1C(=O)NC(Cc1ccccc1)P(=O)(c1ccccc1)c1ccccc1)C1CCCCC1 (some centres unmarked) [Compound 14]
[1]
  inhibition at 10 µM: 20%
[2]
  inhibition at 10 µM: 8%
[3]
  inhibition at 10 µM: 7%
[4]; Homo sapiens, MDA-MB-231, 72 h
  IC50: 2.72 ± 0.69 µM
[5]
  inhibition at 10 µM: 1%
[6]
  inhibition at 10 µM: 5%
[7]
  inhibition at 50 µM: 100%
  Ki: 0.64 µM
[7]; read-out: EC50
  EC50: 1.31 µM
[7]; read-out: log EC50 (converted)
  EC50: 1.31 µM

## CCC(NC(=O)[C@@H]1CCCN1C(=O)[C@@H](NC(=O)[C@H](C)NC)C1CCCCC1)P(=O)(Oc1ccccc1)Oc1ccccc1 (stereo partly drawn) [Compound 32, diphenyl (1-((S)-1-((S)-2-cyclohexyl-2-((S)-2-(methylamino)propanamido)acetyl)pyrrolidine-2-carboxamido)propyl)phosphonate]
[7]
  inhibition at 50 µM: 71%
  Ki: 11.9 µM
[7]; read-out: EC50
  EC50: 24 µM
[7]; read-out: log EC50 (converted)
  EC50: 24 µM

## CN[C@@H](C)C(=O)N[C@H](C(=O)N1CCC[C@H]1C(=O)NC(C(C)C)P(=O)(Oc1ccccc1)Oc1ccccc1)C(C)C (stereo partly drawn) [Compound 33, diphenyl (2-methyl-1-((S)-1-((S)-3-methyl-2-((S)-2-(methylamino)propanamido)butanoyl)pyrrolidine-2-carboxamido)propyl)phosphonate]
[7]
  inhibition at 50 µM: 58.5%
  Ki: 17.4 µM
[7]; read-out: EC50
  EC50: 35 µM
[7]; read-out: log EC50 (converted)
  EC50: 34.9 µM

## CN[C@@H](C)C(=O)N[C@H](C(=O)N1CCC[C@H]1C(=O)NC(C(C)C)P(=O)(Oc1ccccc1)Oc1ccccc1)C1CCCCC1 (some centres unmarked) [Compound 34]
[7]
  inhibition at 50 µM: 70.5%
  Ki: 11.8 µM
[7]; read-out: EC50
  EC50: 23.9 µM
[7]; read-out: log EC50 (converted)
  EC50: 23.9 µM

## CCC(C)C(NC(=O)[C@@H]1CCCN1C(=O)[C@@H](NC(=O)[C@H](C)NC)C(C)C)P(=O)(Oc1ccccc1)Oc1ccccc1 (some centres unmarked) [Compound 35]
[7]
  inhibition at 50 µM: 77.4%
  Ki: 8.84 µM
[7]; read-out: EC50
  EC50: 17.8 µM
[7]; read-out: log EC50 (converted)
  EC50: 17.8 µM

## CCC(C)C(NC(=O)[C@@H]1CCCN1C(=O)[C@@H](NC(=O)[C@H](C)NC)C1CCCCC1)P(=O)(Oc1ccccc1)Oc1ccccc1 (some centres unmarked) [Compound 36]
[7]
  inhibition at 50 µM: 81.4%
  Ki: 8.05 µM
[7]; read-out: EC50
  EC50: 16.2 µM
[7]; read-out: log EC50 (converted)
  EC50: 16.3 µM

## CN[C@@H](C)C(=O)N[C@H](C(=O)N1CCC[C@H]1C(=O)NC(CC(C)C)P(=O)(Oc1ccccc1)Oc1ccccc1)C(C)C (some centres unmarked) [Compound 37]
[7]
  inhibition at 50 µM: 67.4%
  Ki: 14 µM
[7]; read-out: EC50
  EC50: 28.1 µM
[7]; read-out: log EC50 (converted)
  EC50: 28.1 µM

## CN[C@@H](C)C(=O)N[C@H](C(=O)N1CCC[C@H]1C(=O)NC(CC(C)C)P(=O)(Oc1ccccc1)Oc1ccccc1)C1CCCCC1 (some centres unmarked) [Compound 38]
[7]
  inhibition at 50 µM: 84.2%
  Ki: 5.25 µM
[7]; read-out: EC50
  EC50: 10.6 µM
[7]; read-out: log EC50 (converted)
  EC50: 10.6 µM

## CN[C@@H](C)C(=O)N[C@H](C(=O)N1CCC[C@H]1C(=O)NC(CCSC)P(=O)(Oc1ccccc1)Oc1ccccc1)C(C)C (some centres unmarked) [Compound 39]
[7]
  inhibition at 50 µM: 65.8%
  Ki: 13 µM
[7]; read-out: EC50
  EC50: 26.2 µM
[7]; read-out: log EC50 (converted)
  EC50: 26.2 µM

## CN[C@@H](C)C(=O)N[C@H](C(=O)N1CCC[C@H]1C(=O)NC(CCSC)P(=O)(Oc1ccccc1)Oc1ccccc1)C1CCCCC1 (stereo partly drawn) [Compound 40, diphenyl (1-((S)-1-((S)-2-cyclohexyl-2-((S)-2-(methylamino)propanamido)acetyl)pyrrolidine-2-carboxamido)-3-(methylthio)propyl)phosphonate]
[7]
  inhibition at 50 µM: 73.8%
  Ki: 13 µM
[7]; read-out: EC50
  EC50: 26.3 µM
[7]; read-out: log EC50 (converted)
  EC50: 26.3 µM

## CN[C@@H](C)C(=O)N[C@H](C(=O)N1CCC[C@H]1C(=O)NC(CCc1ccccc1)P(=O)(Oc1ccccc1)Oc1ccccc1)C(C)C (some centres unmarked) [Compound 43]
[7]
  inhibition at 50 µM: 85.4%
[7]; read-out: EC50
  EC50: 17.2 µM
[7]; read-out: log EC50 (converted)
  EC50: 17.2 µM

## CN[C@@H](C)C(=O)N[C@H](C(=O)N1CCC[C@H]1C(=O)NC(CCc1ccccc1)P(=O)(Oc1ccccc1)Oc1ccccc1)C1CCCCC1 (stereo partly drawn) [Compound 44, diphenyl (1-((S)-1-((S)-2-cyclohexyl-2-((S)-2-(methylamino)propanamido)acetyl)pyrrolidine-2-carboxamido)-3-phenylpropyl)phosphonate]
[7]
  inhibition at 50 µM: 86.5%
  Ki: 7.57 µM
[7]; read-out: EC50
  EC50: 15.3 µM
[7]; read-out: log EC50 (converted)
  EC50: 15.3 µM

## CN[C@@H](C)C(=O)N[C@H](C(=O)N1CCC[C@H]1c1nc(C(=O)c2ccc(F)cc2)cs1)C1CCCCC1 [LCL-161, reference compound]
[1]
  inhibition at 10 µM: 19%
[2]
  inhibition at 10 µM: 16%
[3]
  inhibition at 10 µM: 26%
[4]; Homo sapiens, MDA-MB-231, 72 h
  IC50: 0.76 ± 0.23 µM
[5]
  inhibition at 10 µM: 2%
[6]
  inhibition at 10 µM: 11%

## [NMeA]-Val-Pro-OH [Compound 1]
[7]
  interaction with the XIAP BIR3 domain (in words): did not interact with the XIAP BIR3 domain at a significant level

## [NMeA]-[Chg]-Pro-OH [Compound 2]
[7]
  interaction with the XIAP BIR3 domain (in words): did not interact with the XIAP BIR3 domain at a significant level

Reference: PMC7497679, “Structure-based design, synthesis, and evaluation of the biological activity of novel phosphoroorganic small molecule IAP antagonists” (Investigational New Drugs, 2020)
